Residues, ends and D or L forms follow the SMILES beside them. *: point of attachment. Cbz = O=C(OCc1ccccc1)*; CH2F = FC*
Legend:
[1] = test system: Caspase8 activated with FADD + Fas; assay: Yeast cleavable-reporter β-galactosidase assay, Fas/FADD/Caspase-8 three-component system (384 well); assay type: cell-based, human; settings: for selectivity for Fas/FADD/Caspase-8 over Asc/Caspase-1 in yeast reporter assays: 384 well, various concentrations, 2–4 days at 30°C, OD620, counter-strains lacZ, Asc/Caspase-1, empty vector
Procedure: (§1) Figure 5 Validation of yeast-based assay using pharmacological inhibitor of Caspases. (A) Caspase-1, single component assay. EGY48 yeast cells expressing S1 substrate (TEF-Fas-d-S1-TA) and high levels of Caspase-1 (TEF-HA-Caspase1-FLAG) were incubated for 3 days in selection media (SD/X-gal) with the indicated concentrations of z-VAD-fmk in DMSO (•) or DMSO only (○), using 384-well plates. (B) Asc/Caspase-1 two-component system. EGY48 yeast cells expressing S1 substrate (TEF-Fas-d-S1-TA) a low level of pro-Caspase-1 (ΔTEF1-Caspase1-FLAG) and high levels of Asc (TEF-HA-Asc) were incubated for 3 days in the selection media (SD/X-gal) in 384 well plates with the indicated concentrations of calpeptin (▴) or z-VAD-fmk (•) or an equivalent volume of DMSO (○). (C) Fas/FADD/Caspase8 three-component system. EGY48 yeast cells expressing S8 substrate (TEF-S8-TA), low levels of pro-Caspase-8 CYC1-Caspase-8-HA, with a small amount of FADD (from ΔADH1 promoter) and a large amount of Fas (from ADH promoter), were incubated in selection media (SD/X-gal) with the indicated concentrations of calpeptin (▴) or z-VAD-fmk (•), or equivalent volume of DMSO (○), in 384-well plates for 3–4 days. For (A–C), relative absorbance at 620 nm was measured (mean ± std dev; n = 3−5 independent experiments). (* indicates p<0.001).
Figure 6 HTS Implementation of yeast-based, 3-component Caspase assays. (A) Validation of HTS assay for NLRP1-Asc-Caspase-1 system. Yeast cells (18 µl, typically at ≈2×10^5 cells/well) containing NLRP1ΔLRR/Asc/Caspase-1 were plated into wells of 384 well plates in media containing 1% galactose, 0.2% raffinose. Wells also contained 18 µL selection media with (blue squares) or without (purple diamonds) X-gal substrate (400 µg/mL final Concentration) plus 10% DMSO (4 µl) (to simulate compound addition). The plates were incubated for 72 hrs at 30°C and the OD620 was recorded. Values (mean±std dev) were calculated for the assay maximum and minimum. The Z' factor was calculated as described. (B) Example of library screening plate for NLRP1-Asc-Caspase-1. Yeast cells (typically at ≈2×10^5 cells/well) containing NLRP1/Asc/Caspase-1 were plated in 384 well plates in Selection Media, without (purple triangles) or with (all other wells) 400 µg/ml X-gal (final concentration). Compounds in DMSO (∼10 µM final) had been pre-added to wells (diamonds). The plates were incubated for 72 hrs at 30°C and the OD620 was recorded, “Hits” were defined by >50% reduction (as shown in green diamonds). […] Yeast cells containing Fas/FADD/Caspase-8 were cultured in 384 well plates as above with (blue squares) or without (purple diamonds) X-gal substrate, the plates were incubated for 72 hrs at 30°C and analyzed as above. […] Plates were incubated for 48 hrs at 30°C and OD620 values recorded. […]

Caspases = assay: Yeast-based Caspase-dependent lacZ reporter gene assays, 384 well format (summary over assays); assay type: cell-based, human
Procedure: We further validated the 384 well assay format, using zVAD-fmk, a peptidyl inhibitor with broad-spectrum activity against animal Caspases. For some experiments, a Calpain inhibitor was employed in side-by-side experiments as a control. The broad-spectrum Caspase inhibitor zVAD-fmk inhibited β-galactosidase activity in a dose-dependent fashion, with the concentration required for achieving 50% inhibition ranging from ∼1–10 µM in these assays, which were performed in 384 well format (Figure 5) (Table S1). […] These experiments verify that the 384 well version of the yeast-based Caspase-dependent reporter gene assay faithfully indicates the activity of an inhibitory compound, thus fulfilling one of the prerequisites for developing HTS assays.
Figure 5 Validation of yeast-based assay using pharmacological inhibitor of Caspases. (A) Caspase-1, single component assay. EGY48 yeast cells expressing S1 substrate (TEF-Fas-d-S1-TA) and high levels of Caspase-1 (TEF-HA-Caspase1-FLAG) were incubated for 3 days in selection media (SD/X-gal) with the indicated concentrations of z-VAD-fmk in DMSO (•) or DMSO only (○), using 384-well plates. […] For (A–C), relative absorbance at 620 nm was measured (mean ± std dev; n = 3−5 independent experiments). […]
(§2) For caspase assays, the assays were performed in a total volume of 40 µl in triplicate. […] Absorbance at 620 nm was measured 2–3 days after culture at 30°C.

Caspase6 = molecular target: T1, Caspase6 (Homo sapiens, UniProt P55212); assay: Yeast cleavable-reporter β-galactosidase assay, Caspase-6 (384 well); assay type: cell-based; settings: yeast expressing Caspase6; 384 well β-galactosidase activity assay; read-out: IC50 for z-VAD inhibition of Caspases
T1 construct: We expressed full-length Caspases-1, 2, 3, 4, 5, 6, 7, and 9 from high copy-number plasmids; HA (N); expressed in transfected cells; host or cells: Saccharomyces cerevisiae (EGY48)
T1 sequence (P55212 24-179 limits assumed): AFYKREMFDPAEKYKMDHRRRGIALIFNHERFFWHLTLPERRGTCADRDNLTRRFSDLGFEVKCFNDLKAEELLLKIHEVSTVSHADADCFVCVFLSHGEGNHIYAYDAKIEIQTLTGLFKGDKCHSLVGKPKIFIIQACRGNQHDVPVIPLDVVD
T1 sequence (P55212 194-293 limits assumed): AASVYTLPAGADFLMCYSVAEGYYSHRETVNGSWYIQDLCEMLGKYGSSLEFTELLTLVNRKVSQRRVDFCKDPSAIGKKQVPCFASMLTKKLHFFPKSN
Procedure: (§3) For caspase assays, the assays were performed in a total volume of 40 µl in triplicate. First, 20 µl of liquid selection media containing X-gal and a series of concentrations of reagents such as z-VAD was dispensed into each well of 384-well plates. Next, confluent yeast cells expressing various Caspases and cleavable substrates were collected, washed with water, and suspended in selection media of the same volume as the culture media. The yeast suspension was diluted to 1∶5-10 (v:v) with the selection media, and 20 µl aliquots were added to the 384-well plates. For ATG4B assays, yeast cells expressing ATG4B and LC3 fused-transcription factor were cultured overnight in standard growth medium, then the yeast cells were diluted in selection medium (SD medium containing 1% galactose, 0.2% raffinose, BU salts, and 100 µg/ml X-gal) at 10^4/ml and dispensed 100 µl into each well of 384-well plates. Absorbance at 620 nm was measured 2–3 days after culture at 30°C.
(§4) Supplementary file pone.0007655.s002.pdf: Table S1 Determination of IC50 values for zVAD-fmk inhibition of Caspases in yeast. […] The compound was titrated into assays at various concentrations and percentage inhibition was determined. IC50 values were determined, using PRIZM software for analysis. […]

[2] = molecular target: Caspase1 activated with Asc; assay: Yeast cleavable-reporter β-galactosidase assay, Asc/Caspase-1 two-component system (384 well); assay type: cell-based, human; settings: 384 well β-galactosidase activity assay, read-out: IC50 for z-VAD inhibition of Caspases
Procedure: as §1, with “EGY48 yeast cells expressing S8 substrate (TEF-S8-TA), low levels of pro-Caspase-8 CYC1-Caspase-8-HA, with a small amount of FADD (from ΔADH1 promoter) and a large amount of Fas (from ADH promoter), were incubated in selection media (SD/X-gal) with the indicated concentrations of calpeptin (▴) or z-VAD-fmk (•), or equivalent volume of DMSO (○), in 384-well plates for 3–4 days.” left out, “(* indicates p<0.001).” left out
For caspase assays, the assays were performed in a total volume of 40 µl in triplicate. […] Absorbance at 620 nm was measured 2–3 days after culture at 30°C. […]
as §4

[3] = test system: NLRP1/ASC/Caspase-1 proteolytic network; assay: Yeast cleavable-reporter β-galactosidase assay, NLRP1/ASC/Caspase-1 three-component system (384 well); assay type: cell-based, human; settings: 100 µM zVAD final, 2×10^5 cells/well, 48 hours, 400 µg/ml X-gal; Assay Max (DMSO) 0.78
Procedure: For the Fas/FADD/Caspase-8 and the NLRP1/Asc/Caspase-1 assays, EGY48 yeast containing the desired plasmids were streaked onto SD plates (6.8 g Yeast Nitrogen Base w/o amino acids, 20 mg arginine, 50 mg threonine, 30 mg isoleucine, 60 mg phenylalanine, 20 mg valine) containing agar (1.7%), supplemented with 2% α-D-glucose and 50 µg/mL leucine. The plates were incubated at 30°C for 48 hrs and a colony was picked and transferred to a 14 ml polypropylene tube containing 2 ml of SD media broth supplemented with α-D-glucose and leucine as above and grown at 30°C for 16–24 hrs with shaking. Then, 1 ml of the overnight culture was transferred into 20 mls of growth media in a 500 ml flask and shaken at 30°C for 16–24 hrs. […] After 48 hours, the plates were brought to room temperature, the breathable film removed and replaced with the transparent polyester tape seal, and the plates were mixed, pelleted briefly and read using a Beckman DTX 880, recording absorbance at 620 nm.
Supplementary file pone.0007655.s020.pdf: Figure S18 Determination of Z' scores for NLRP1(NALP1) and Fas(CD95) 3-component yeast-based HTS assays using caspase inhibitor zVAD-fmk. […] The Z' scores were determined by comparison of the DMSO-treated samples with the zVAD-treated samples. […]

[4] = molecular target: Caspase10 activated with FADD; assay: Yeast cleavable-reporter β-galactosidase assay, FADD/Caspase-10 (384 well); assay type: cell-based, human; settings: 384 well β-galactosidase activity assay, read-out: IC50 for z-VAD inhibition of Caspases
Procedure: as §3, §4

[5] = molecular target: Caspase9 activated with Apaf*; assay: Yeast cleavable-reporter β-galactosidase assay, Apaf*/Caspase-9 (384 well); assay type: cell-based, human; settings: 384 well β-galactosidase activity assay, read-out: IC50 for z-VAD inhibition of Caspases
Procedure: as §3, §4

Caspase1 = molecular target: T2, Caspase1 (Homo sapiens, UniProt P29466); assay: Yeast cleavable-reporter β-galactosidase assay, Caspase-1 single component (384 well); assay type: cell-based; settings: yeast expressing Caspase1 alone at high levels; 384 well β-galactosidase activity assay; read-out: IC50 for z-VAD inhibition of Caspases
T2 construct: We expressed full-length Caspases-1, 2, 3, 4, 5, 6, 7, and 9 from high copy-number plasmids; HA (N); FLAG (C); expressed in transfected cells; host or cells: Saccharomyces cerevisiae EGY48
T2 sequence (P29466 120-297 limits assumed): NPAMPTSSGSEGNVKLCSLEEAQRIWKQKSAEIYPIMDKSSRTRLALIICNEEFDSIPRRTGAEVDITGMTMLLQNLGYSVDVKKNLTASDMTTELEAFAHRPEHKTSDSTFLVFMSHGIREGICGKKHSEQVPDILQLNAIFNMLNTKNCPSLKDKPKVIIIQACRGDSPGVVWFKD
T2 sequence (P29466 317-404 limits assumed): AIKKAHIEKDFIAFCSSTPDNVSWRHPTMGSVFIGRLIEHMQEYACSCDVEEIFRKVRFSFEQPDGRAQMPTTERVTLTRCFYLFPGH
Procedure: as §1, with “EGY48 yeast cells expressing S8 substrate (TEF-S8-TA), low levels of pro-Caspase-8 CYC1-Caspase-8-HA, with a small amount of FADD (from ΔADH1 promoter) and a large amount of Fas (from ADH promoter), were incubated in selection media (SD/X-gal) with the indicated concentrations of calpeptin (▴) or z-VAD-fmk (•), or equivalent volume of DMSO (○), in 384-well plates for 3–4 days.” left out, “(* indicates p<0.001).” left out
as §2, §4

SMILES: c1ccc2c(c1)[I+]c1ccccc1-2 [CID-3101]
- selectivity for Fas/FADD/Caspase-8 over Asc/Caspase-1 in yeast reporter assays [1]: selective inhibition of Fas-FADD-Caspase-8

SMILES: C[n+]1cc2c3c(ccc2c2ccc4cc5c(cc4c21)OCO5)OCO3 [CID-5154]
- selectivity for Fas/FADD/Caspase-8 over Asc/Caspase-1 in yeast reporter assays [1]: selective inhibition of Fas-FADD-Caspase-8

SMILES: CCCC[C@@H](C=O)NC(=O)[C@H](CC(C)C)NC(=O)OCc1ccccc1 [Calpain inhibitor, calpeptin]
- suppression of activation of the lacZ reporter gene (Caspases; control compound side-by-side with zVAD-fmk): did not suppress activation of the lacZ reporter gene

SMILES: COC(=O)C[C@H](NC(=O)[C@H](C)NC(=O)[C@@H](NC(=O)OCc1ccccc1)C(C)C)C(=O)CF [zVAD-fmk] (Cbz-Val-Ala-Asp(OMe)-CH2F)
- IC50 (Caspase6): 6.78 µM
- IC50 (Caspases; range over the yeast Caspase assays, dose-dependent, read-out: concentration required for achieving 50% inhibition of β-galactosidase activity): 1 to 10 µM
- IC50 [2]: 1 µM
- Assay Min (zVAD), absorbance OD620 ([1]; 100 µM zVAD final, 2×10^5 cells/well, 48 hours, 400 µg/ml X-gal, Assay Max (DMSO) 0.56): 0.20
- IC50 ([1]; yeast, Caspase8 activated with FADD + Fas, 384 well β-galactosidase activity assay, read-out: IC50 for z-VAD inhibition of Caspases): 5.42 µM
- Assay Min (zVAD), absorbance OD620 [3]: 0.19
- IC50 [4]: 9.52 µM
- IC50 [5]: 10.7 µM
- IC50 (Caspase1): 3.07 µM

Source: article PMC2764853, “Versatile Assays for High Throughput Screening for Activators or Inhibitors of Intracellular Proteases and Their Cellular Regulators” (PLoS ONE, 2009)
